Results from US7834011B2, “Heterocyclylalkyl derivatives as novel inhibitors of histone deacetylase” (Janssen Pharmaceutica N.V., priority 2006, dated 2010).

Assays:
[1] = Metabolic stability with rat hepatocytes cell culture C.5.b; format: in vitro ADME; details: male, Sprague Dowley, rat hepatocyte cell cultures, read-out: in vitro half-life
From the text: Metabolism of drugs means that a lipid-soluble xenobiotic or endobiotic compound is enzymatically transformed into (a) polar, water-soluble, and excretable metabolite(s). The major organ for drug metabolism is the liver. […] However, some metabolites may have enhanced activity or toxic effects. Thus drug metabolism may include both “detoxication” and “toxication” processes. One of the major enzyme systems that determine the organism's capability of dealing with drugs and chemicals is represented by the cytochrome P450 monooxygenases, which are NADPH dependent enzymes. Metabolic stability of compounds can be determined in vitro with the use of subcellular human tissue (see example C.5.a.). Here metabolic stability of the compounds is expressed as % of drug metabolised after 15 minutes incubation of these compounds with microsomes. Quantitation of the compounds was determined by LC-MS analysis. Metabolic stability of compounds can also be determined by calculating the half live of compounds in rat hepatocyte cells (see example C.5.b.).
Rat hepatocytes were isolated from male Sprague Dowley rats. The compounds were dissolved to a 5 mM stock solution in 100% DMSO and incubated at a final concentration of 5 μM for 0, 15, 30, 60 and 120 min with rat hepatocyte cell cultures (0.5 million viable cells/0.5 ml) using 24-well plates.
Samples were prepared for LC-MS by addition of two volumes of DMSO. The samples were thoroughly shaken and subsequently centrifuged at 900 g for 10 min (room temperature). All experiments were performed in triplicate. Of the resulting supernatant 50 μl was analysed by LC-MS.
For LC-MS, elution of samples was performed on a Hypersil BDS C18 column (50×4.6 mm, 5 μm, Thermohypersil, UK). […]
Total injection volume of samples was 50 μL. […] The mass spectrometer was operated in positive ion mode in SIM adjusted to the mass of M+H with a scan width of 1 Da for quantification purposes. […] The metabolic stability of compounds in rat hepatocytes was expressed as in vitro half-lives. […]

[2] = system: A2780 ovarian carcinoma cells; experiment: Antiproliferative activity on A2780 cells (MTT); format: cell-based; details: Homo sapiens, 96 h, four days of incubation, read-out: Cellular activity pIC50 C.2 (converted)
Procedure: Cellular activity of the compounds of formula (I) was determined on A2780 tumour cells using a colorimetric assay for cell toxicity or survival (Mosmann Tim, Journal of Immunological Methods 65: 55-63, 1983)(see example C.2).
All compounds tested were dissolved in DMSO and further dilutions were made in culture medium. Final DMSO concentrations never exceeded 0.1% (v/v) in cell proliferation assays. Controls contained A2780 cells and DMSO without compound and blanks contained DMSO but no cells. MTT was dissolved at 5 mg/ml in PBS. A glycine buffer comprised of 0.1 M glycine and 0.1 M NaCl buffered to pH 10.5 with NaOH (1 N) was prepared (all reagents were from Merck).
The human A2780 ovarian carcinoma cells (a kind gift from Dr. T. C. Hamilton [Fox Chase Cancer Centre, Pennsylvania, USA]) were cultured in RPMI 1640 medium supplemented with 2 mM L-glutamine, 50 μg/ml gentamicin and 10% fetal calf serum. Cells were routinely kept as monolayer cultures at 37° C. in a humidified 5% CO2 atmosphere. Cells were passaged once a week using a trypsin/EDTA solution at a split ratio of 1:40. All media and supplements were obtained from Life Technologies. Cells were free of mycoplasma contamination as determined using the Gen-Probe Mycoplasma Tissue Culture kit (supplier: BioMérieux).
Cells were seeded in NUNC™ 96-well culture plates (Supplier: Life Technologies) and allowed to adhere to the plastic overnight. Densities used for plating were 1500 cells per well in a total volume of 200 μl medium. After cell adhesion to the plates, medium was changed and drugs and/or solvents were added to a final volume of 200 μl. Following four days of incubation, medium was replaced by 200 μl fresh medium and cell density and viability was assessed using an MTT-based assay. To each well, 25 μl MTT solution was added and the cells were further incubated for 2 hours at 37° C. The medium was then carefully aspirated and the blue MTT-formazan product was solubilized by addition of 25 μl glycine buffer followed by 100 μl of DMSO. […] Within an experiment, the results for each experimental condition are the mean of 3 replicate wells. For initial screening purposes, compounds were tested at a single fixed concentration of 10^−6 M. For active compounds, the experiments were repeated to establish full concentration-response curves. For each experiment, controls (containing no drug) and a blank incubation (containing no cells or drugs) were run in parallel. The blank value was subtracted from all control and sample values. For each sample, the mean value for cell growth (in absorbance units) was expressed as a percentage of the mean value for cell growth of the control. […] Herein the effects of test compounds are expressed as pIC50 (the negative log value of the IC50-value)(see Table F-2).

Cn1c(CNCC2CCN(c3ncc(C(=O)NO)cn3)CC2)nc2ccccc21 [Compound 3]
melting point: 209 °C | half-life at 5 μM [1]: 30 to 55 min | IC50 [2]: 100 nM
